What all share (type): in vivo, C57BL/6J mice
Series [1] concerns EPO-induced secondary erythrocytosis model. Nature of the series: EPO-induced secondary erythrocytosis murine model: spleen index and CBC panel. The following applies: 30 mg/kg orally once daily. The source says:
(§1) The EPO-induced secondary erythrocytosis model was used to evaluate the in vivo pharmacodynamic effect of GlyT1 inhibitor in preventing, treating, or reducing the progression rate and/or severity of polycythemia vera. Erythropoietin (EPO) stimulates the production of red blood cells and results in increased hematocrit in mice after daily dosing for 7 days at 50 IU. Therefore, the EPO model mimics the hematological parameters of polycythemia vera where JAK2 mutation drives the erythrocytosis. Briefly, 30 mg/kg of GlyT1 inhibitor bitopertin or vehicle control was administrated orally into wildtype C57BL/6J mice (10 mice per group) once daily from day 1 to day 15. 50 IU EPO was administrated daily by intraperitoneal route from day 8 to day 14 to induce erythrocytosis resembling the pathological process of polycythemia vera (FIG. 1A). Blood samples were collected from submaxillary on day 8 before the first EPO administration and on day 15, 6 hours after the last dose of GlyT1 inhibitor for CBC panel analysis using Sysmex XN-1000™ hematology analyzer. Bioanalysis of drug concentration was performed in plasma collected 6 hours after the last dose. All mice were weighed and humanely euthanized. The spleen was weighed and the spleen index was calculated via dividing the weight of spleen by the whole-body weight.

A short description of series [2]: Body weight in the EPO-induced erythrocytosis study. The conditions noted are these: 30 mg/kg orally once daily, 14-day treatment, EPO model (FIG. 1B).
Text: as §1

A short description of series [3]: Body weight in the DPO-induced erythrocytosis study. The following applies: 30 or 60 mg/kg orally once daily, 8-day treatment, DPO model (FIG. 2B). The method, then: (§2) Briefly, C57BL/6J mice were administrated with DPO subcutaneously at 10 μg/kg/week for 2 weeks to induce erythrocytosis resembling the pathological process of polycythemia vera (FIG. 2A). 30 mg/kg or 60 mg/kg of GlyT1 inhibitor bitopertin or vehicle control was administrated orally into wild type C57BL/6J mice (10 mice per group for the vehicle and 30 mg/kg groups; 15 mice for the 60 mg/kg group) once daily from day 7 to day 15. The 60 mg/kg group was dosed at 20 mg/kg on day 7, 40 mg/kg on day 8-9, 50 mg/kg on day 10-11, 60 mg/kg on day 12-15. Blood samples were collected from submaxillary on day 0 before the first DPO administration, on day 7 before the first dose of GlyT1 inhibitor, and on day 15, 6 hours after the dosing of GlyT1 inhibitor for CBC panel analysis using Sysmex XN-1000™ hematology analyzer.

Series [4] has as its system DPO-induced secondary erythrocytosis model. Nature of the series: DPO-induced secondary erythrocytosis murine model: CBC panel. On the procedure: Darbepoietin-alpha (DPO) is a long-lasting analogue of EPO. To investigate the in vivo pharmacodynamic effect of GlyT1 inhibitor in preventing, treating, or reducing the progression rate and/or severity of polycythemia vera for longer periods, DPO was used to stimulate the production of red blood cells and mimicking the hematological features of polycythemia vera where JAK2 mutation drives the erythrocytosis.
as §2

Series [5] can be described thus: Plasma drug concentration in the EPO-induced erythrocytosis study. The following applies: C57BL/6J, mouse, po, 6 hours after the last dose, 30 mg/kg orally once daily day 1 to 15, mice (FIG. 1C).
Text: as §1

Structures are written as SMILES.

As for `C[C@H](Oc1ccc(S(C)(=O)=O)cc1C(=O)N1CCN(c2ncc(C(F)(F)F)cc2F)CC1)C(F)(F)F` [bitopertin], the “hematocrit (HCT %)” value is “reduced” in series [1] (EPO model, day 15 (FIG. 1E)) and “reduced” in series [4] (30 or 60 mg/kg orally once daily day 7-15, DPO model, in a dose dependent manner (FIG. 2C)). Further, the RBC count entry is on record as “reduced” in series [1] (EPO model, day 15 (FIG. 1F)) and “reduced” in series [4] (30 or 60 mg/kg orally once daily day 7-15, DPO model, in a dose dependent manner (FIG. 2D)). In addition, in series [1] (EPO model, day 15 (FIG. 1G)), the Hemoglobin levels entry is reported as “reduced”. For the same molecule, the “spleen index (spleen weight / whole-body weight)” value in series [1] (EPO 50 IU i.p. day 8-14, EPO + vehicle 1.56%, normal mice 0.39% (FIG. 1D)) was found to be 1.26%. Moreover, the body-weight changes entry in series [2] and in series [3] was “No major body-weight changes” in each case. Moreover, the “reticulocyte hemoglobin (RET-He)” value in series [4] (30 or 60 mg/kg orally once daily day 7-15, DPO model (FIG. 2F)) is listed as “significant reduction”. Moreover, in series [4] (30 or 60 mg/kg orally once daily day 7-15, DPO model (FIG. 2G)), the “mean corpuscular hemoglobin (MCH)” value is recorded as “significant reduction”. The “mean corpuscular volume (MCV)” value in series [4] (30 or 60 mg/kg orally once daily day 7-15, DPO model (FIG. 2H)) was “slightly reduced”. In addition, the “Hemoglobin levels (HGB)” value in series [4] (30 or 60 mg/kg orally once daily day 7-15, DPO model, in a dose dependent manner (FIG. 2E)) is recorded as “reduced”. In series [5], the concentration at 6 h is 639 ± 38 ng/mL.

Source of the values: US20240269132A1, “COMPOSITIONS AND METHODS FOR TREATING POLYCYTHEMIA” (Disc Medicine, Inc., priority 0001, published 2024).
